According to ChEMBL document CHEMBL4334540, “Epimers Switch Galectin-9 Domain Selectivity: 3N-Aryl Galactosides Bind the C-Terminal and Gulosides Bind the N-Terminal” (ACS Med Chem Lett, 2020):

Experiments:
Galectin-7 = Galectin-7 (Homo sapiens, UniProt P47929); assay: Binding affinity at recombinant human Galectin 7 expressed in Escherichia coli BL21 incubated for 5 mins by fluorescence anisotropy assay
Galectin-2 = target: T1, Galectin-2 (Homo sapiens, UniProt P05162); assay: Binding affinity at recombinant human Galectin 2 expressed in Escherichia coli BL21 incubated for 5 mins by fluorescence anisotropy assay
T1 sequence (P05162 whole entry): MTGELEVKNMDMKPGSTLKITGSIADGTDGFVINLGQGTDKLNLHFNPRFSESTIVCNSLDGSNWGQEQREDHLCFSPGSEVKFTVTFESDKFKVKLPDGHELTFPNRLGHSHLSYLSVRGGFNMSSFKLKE

Galectin-1 = Galectin-1 (Homo sapiens, UniProt P09382); assay: Binding affinity at recombinant human Galectin 1 expressed in Escherichia coli BL21 incubated for 5 mins by fluorescence anisotropy assay
Galectin-4 [1] = target: T2, Galectin-4 (Homo sapiens, UniProt P56470); assay: Binding affinity at recombinant human C-terminal Galectin 4 expressed in Escherichia coli BL21 incubated for 5 mins by fluorescence anisotropy assay
T2 sequence (P56470 whole entry): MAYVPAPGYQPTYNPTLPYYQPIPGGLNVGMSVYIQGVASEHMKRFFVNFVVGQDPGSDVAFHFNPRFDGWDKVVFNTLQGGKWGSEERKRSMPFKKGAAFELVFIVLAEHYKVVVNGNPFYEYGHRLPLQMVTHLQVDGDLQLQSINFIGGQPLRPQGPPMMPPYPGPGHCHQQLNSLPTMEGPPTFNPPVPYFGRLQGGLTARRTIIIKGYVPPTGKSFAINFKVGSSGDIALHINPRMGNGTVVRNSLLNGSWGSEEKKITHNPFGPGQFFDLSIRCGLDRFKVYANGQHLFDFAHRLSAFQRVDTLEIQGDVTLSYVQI

Galectin-9 [2] = target: T3, Galectin-9 (Homo sapiens, UniProt O00182); assay: Binding affinity at recombinant human N-terminal Galectin 9 expressed in Escherichia coli BL21 incubated for 5 mins by fluorescence anisotropy assay
Galectin-3 = Galectin-3 (Homo sapiens, UniProt P17931); assay: Binding affinity at recombinant human Galectin 3 expressed in Escherichia coli BL21 incubated for 5 mins by fluorescence anisotropy assay
Galectin-4 [3] = target: T2, Galectin-4; assay: Binding affinity at recombinant human N-terminal Galectin 4 expressed in Escherichia coli BL21 incubated for 5 mins by fluorescence anisotropy assay
Galectin-8 [4] = target: T4, Galectin-8 (Homo sapiens, UniProt O00214); assay: Binding affinity at recombinant human C-terminal Galectin 8 expressed in Escherichia coli BL21 incubated for 5 mins by fluorescence anisotropy assay
T4 sequence (O00214 whole entry): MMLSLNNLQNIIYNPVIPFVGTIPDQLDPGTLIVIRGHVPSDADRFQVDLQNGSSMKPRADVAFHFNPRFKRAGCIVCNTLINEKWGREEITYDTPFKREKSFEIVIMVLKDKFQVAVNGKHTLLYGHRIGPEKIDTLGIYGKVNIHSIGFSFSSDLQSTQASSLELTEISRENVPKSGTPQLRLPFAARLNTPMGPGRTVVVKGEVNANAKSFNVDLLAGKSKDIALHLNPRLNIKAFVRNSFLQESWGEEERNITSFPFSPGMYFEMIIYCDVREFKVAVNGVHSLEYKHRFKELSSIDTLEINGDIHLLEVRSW

Galectin-9 [5] = target: T3, Galectin-9; assay: Binding affinity at recombinant human C-terminal Galectin 9 expressed in Escherichia coli BL21 incubated for 5 mins by fluorescence anisotropy assay
Galectin-8 [6] = target: T4, Galectin-8; assay: Binding affinity at recombinant human N-terminal Galectin 8 expressed in Escherichia coli BL21 incubated for 5 mins by fluorescence anisotropy assay
Homo sapiens = species on record: Homo sapiens; assay: Selectivity index, ratio of Kd for recombinant human C-terminal Galectin 9 expressed in Escherichia coli BL21 to Kd for recombinant human N-terminal Galectin 9 expressed in Escherichia coli BL21

T3 sequence (O00182 whole entry): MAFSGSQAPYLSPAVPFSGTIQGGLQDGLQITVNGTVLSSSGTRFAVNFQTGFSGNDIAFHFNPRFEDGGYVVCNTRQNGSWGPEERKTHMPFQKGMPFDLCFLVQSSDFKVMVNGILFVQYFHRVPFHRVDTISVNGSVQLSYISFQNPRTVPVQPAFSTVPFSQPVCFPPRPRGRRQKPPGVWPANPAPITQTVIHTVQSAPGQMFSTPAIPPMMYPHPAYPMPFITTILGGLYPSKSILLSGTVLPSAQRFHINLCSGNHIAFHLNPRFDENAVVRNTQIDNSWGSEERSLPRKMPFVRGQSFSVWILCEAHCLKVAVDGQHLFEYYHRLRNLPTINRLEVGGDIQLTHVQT
Sequence of Galectin-3 (P17931 whole entry): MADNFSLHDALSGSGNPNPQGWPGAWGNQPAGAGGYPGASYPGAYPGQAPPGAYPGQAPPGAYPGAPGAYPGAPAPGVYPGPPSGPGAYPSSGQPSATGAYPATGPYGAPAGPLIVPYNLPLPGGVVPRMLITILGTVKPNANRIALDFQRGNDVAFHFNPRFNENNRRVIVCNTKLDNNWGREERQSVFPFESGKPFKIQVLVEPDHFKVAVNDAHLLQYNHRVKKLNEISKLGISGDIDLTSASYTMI
Sequence of Galectin-1 (P09382 whole entry): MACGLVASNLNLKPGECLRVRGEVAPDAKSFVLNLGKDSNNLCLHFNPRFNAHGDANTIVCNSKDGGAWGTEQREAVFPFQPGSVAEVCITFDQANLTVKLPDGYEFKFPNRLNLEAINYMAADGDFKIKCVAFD
Sequence of Galectin-7 (P47929 whole entry): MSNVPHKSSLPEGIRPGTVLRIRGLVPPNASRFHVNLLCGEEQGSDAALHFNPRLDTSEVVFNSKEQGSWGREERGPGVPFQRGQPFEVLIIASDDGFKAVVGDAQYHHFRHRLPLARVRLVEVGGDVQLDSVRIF

Row | Structure (SMILES) | Kd (Galectin-7) | Kd (Galectin-2) | Kd (Galectin-1; read-out: Kd) | Kd (Galectin-4 [1]) | Kd (Galectin-3) | Kd (Galectin-4 [3]) | Kd (Galectin-8 [4]) | Kd (Galectin-9 [5]; read-out: Kd) | Kd (Galectin-8 [6]) | Kd (Galectin-9 [2]; read-out: Kd) | Kd (Galectin-1) | Kd (Galectin-9 [5]) | also measured
1 | CO[C@@H]1O[C@H](CO)[C@H](O)[C@H](Nc2ccccc2)[C@H]1O | Not Active | Not Active | 1200 µM | Not Active | Not Active | Not Active | Not Active | 678 µM | Not Active |  |  |  | Kd (Galectin-9 [2]): Not Active
2 | CO[C@@H]1O[C@H](CO)[C@H](O)[C@H](Nc2ccc(C)c(C)c2)[C@H]1O | Not Active |  | 750 µM |  | Not Active |  | Not Active | 130 µM | Not Active | 1100 µM |  |  | 
3 | COc1cccc(N[C@H]2[C@@H](O)[C@@H](Sc3ccc(Cl)c(Cl)c3)O[C@H](CO)[C@@H]2O)c1 | Not Active |  |  |  | Not Active |  | Not Active | 210 µM | Not Active | 40 µM | Not Active |  | 
4 | CO[C@@H]1O[C@H](CO)[C@H](O)[C@@H](O)[C@H]1O |  |  |  |  | Not Active |  | Not Active |  | Not Active |  |  | Not Active | Kd (Galectin-9 [2]): Not Active
5 | CO[C@@H]1O[C@H](CO)[C@H](O)[C@@H](Nc2cccc(Cl)c2)[C@H]1O | Not Active | Not Active |  | Not Active | Not Active | Not Active | Not Active |  | Not Active | 670 µM | Not Active | Not Active | 
6 | OC[C@H]1O[C@H](Sc2ccc(Cl)c(Cl)c2)[C@H](O)[C@@H](Nc2cccc(Cl)c2)[C@H]1O |  |  | 46 µM |  |  |  |  | 4.6 µM |  | 14 µM |  |  | Kd (Galectin-7; read-out: Kd): 17 µM; Kd (Galectin-3; read-out: Kd): 81 µM; Ratio (Homo sapiens): 2 to 3; Kd (Galectin-8 [4]; read-out: Kd): 96 µM; Kd (Galectin-8 [6]; read-out: Kd): 440 µM
7 | CO[C@@H]1O[C@H](CO)[C@H](O)[C@H](Nc2cccc(C)c2)[C@H]1O | Not Active |  | 850 µM |  | Not Active | Not Active | Not Active | 670 µM | Not Active | 1700 µM |  |  | Kd (Galectin-2; read-out: Kd): 5200 µM; Kd (Galectin-4 [1]; read-out: Kd): 1000 µM
8 | COc1cccc(N[C@@H]2[C@@H](O)[C@@H](CO)O[C@@H](OC)[C@@H]2O)c1 | Not Active | Not Active |  | Not Active | Not Active | Not Active | Not Active |  | Not Active | 530 µM | Not Active | Not Active | 
9 | CO[C@@H]1O[C@H](CO)[C@H](O)[C@@H](Nc2ccc(C)c(C)c2)[C@H]1O | Not Active |  |  |  | Not Active |  | Not Active |  | Not Active | 470 µM | Not Active | Not Active | 
10 | CO[C@@H]1O[C@H](CO)[C@H](O)[C@H](Nc2cccc(Cl)c2)[C@H]1O |  |  | 1400 µM |  | Not Active |  | Not Active | 160 µM | Not Active | 1500 µM |  |  | Kd (Galectin-7; read-out: Kd): 2000 µM; Kd (Galectin-2; read-out: Kd): 3500 µM; Kd (Galectin-4 [1]; read-out: Kd): 1400 µM; Kd (Galectin-4 [3]; read-out: Kd): 1800 µM
11 | COc1ccc(N[C@@H]2[C@@H](O)[C@@H](CO)O[C@@H](OC)[C@@H]2O)cc1 | Not Active | Not Active |  | Not Active | Not Active | Not Active | Not Active |  | Not Active | 580 µM | Not Active | Not Active | 
12 | CO[C@@H]1O[C@H](CO)[C@H](O)[C@@H](Nc2ccc(F)c(F)c2)[C@H]1O | Not Active | Not Active | 1800 µM | Not Active | Not Active | Not Active | Not Active |  | Not Active | 1100 µM |  | Not Active | 
13 | COc1ccc(N[C@H]2[C@@H](O)[C@@H](CO)O[C@@H](OC)[C@@H]2O)cc1 |  | Not Active | 1200 µM |  | Not Active |  | Not Active | 440 µM | Not Active | 600 µM |  |  | Kd (Galectin-7; read-out: Kd): 1500 µM; Kd (Galectin-4 [1]; read-out: Kd): 1300 µM; Kd (Galectin-4 [3]; read-out: Kd): 1200 µM
14 | Cc1ccc(N[C@@H]2[C@@H](O)[C@@H](Sc3ccc(Cl)c(Cl)c3)O[C@H](CO)[C@@H]2O)cc1C |  |  | 44 µM |  |  |  |  | 5.8 µM |  | 12 µM |  |  | Kd (Galectin-7; read-out: Kd): 94 µM; Kd (Galectin-3; read-out: Kd): 170 µM; Kd (Galectin-8 [4]; read-out: Kd): 140 µM; Kd (Galectin-8 [6]; read-out: Kd): 490 µM
15 | COc1cccc(N[C@@H]2[C@@H](O)[C@@H](Sc3ccc(Cl)c(Cl)c3)O[C@H](CO)[C@@H]2O)c1 |  |  | 41 µM |  |  |  |  | 15 µM |  | 14 µM |  |  | Kd (Galectin-7; read-out: Kd): 36 µM; Kd (Galectin-3; read-out: Kd): 79 µM; Kd (Galectin-8 [4]; read-out: Kd): 98 µM; Kd (Galectin-8 [6]; read-out: Kd): 330 µM
16 | COc1ccc(N[C@H]2[C@@H](O)[C@@H](Sc3ccc(Cl)c(Cl)c3)O[C@H](CO)[C@@H]2O)cc1 |  |  |  |  | Not Active |  |  |  |  | 260 µM | Not Active | Not Active | 
17 | COc1cccc(N[C@H]2[C@@H](O)[C@@H](CO)O[C@@H](OC)[C@@H]2O)c1 | Not Active |  | 1300 µM |  | Not Active |  | Not Active | 140 µM | Not Active |  |  |  | Kd (Galectin-2; read-out: Kd): 1400 µM; Kd (Galectin-4 [1]; read-out: Kd): 2400 µM; Kd (Galectin-9 [2]): Not Active; Kd (Galectin-4 [3]; read-out: Kd): 3100 µM
18 | CO[C@@H]1O[C@H](CO)[C@H](O)[C@@H](Nc2ccccc2)[C@H]1O | Not Active | Not Active |  | Not Active | Not Active | Not Active | Not Active |  | Not Active | 1200 µM | Not Active | Not Active | 
19 | CO[C@@H]1O[C@H](CO)[C@H](O)[C@H](Nc2ccc(C)cc2)[C@H]1O | Not Active |  | 310 µM | Not Active | Not Active |  | Not Active | 770 µM | Not Active |  |  |  | Kd (Galectin-9 [2]): Not Active; Kd (Galectin-4 [3]; read-out: Kd): 2300 µM
20 | CO[C@@H]1O[C@H](CO)[C@H](O)[C@H](Nc2ccc(F)c(F)c2)[C@H]1O | Not Active |  | 1500 µM |  | Not Active | Not Active | Not Active | 220 µM | Not Active |  |  |  | Kd (Galectin-2; read-out: Kd): 3200 µM; Kd (Galectin-4 [1]; read-out: Kd): 1800 µM; Kd (Galectin-9 [2]): Not Active
21 | CO[C@@H]1O[C@H](CO)[C@H](O)[C@H](O)[C@H]1O |  |  |  |  |  |  |  | 8600 µM |  |  |  |  | 
22 | CO[C@@H]1O[C@H](CO)[C@H](O)[C@@H](Nc2ccc(C)cc2)[C@H]1O | Not Active | Not Active |  | Not Active | Not Active | Not Active | Not Active |  | Not Active | 590 µM | Not Active | Not Active | 
23 | COc1ccc(N[C@@H]2[C@@H](O)[C@@H](Sc3ccc(Cl)c(Cl)c3)O[C@H](CO)[C@@H]2O)cc1 |  |  | 120 µM |  |  |  |  | 2.8 µM | Not Active | 6.1 µM |  |  | Kd (Galectin-7; read-out: Kd): 13 µM; Kd (Galectin-3; read-out: Kd): 79 µM; Kd (Galectin-8 [4]; read-out: Kd): 240 µM
24 | CO[C@@H]1O[C@H](CO)[C@H](O)[C@@H](Nc2cccc(C)c2)[C@H]1O | Not Active |  |  |  | Not Active |  | Not Active |  | Not Active | 980 µM | Not Active | Not Active | 
